Reference: article PMC6135100 (Toxicology, 2017)
Where two headings read alike, the source gives them in different places.

Experiments:
AR (full receptor) = AR (full receptor) (Homo sapiens, UniProt P10275); experiment: qHTS AR-luciferase; type: cell-based; settings: for AR-luc Primary Assay EC50 / AR-luc Primary Assay Efficacy: primary qHTS; for AR-luc Primary Assay EC50: Inactive = efficacy below 30% of R1881's activity; for AR-luc Efficacy / EC50: Table 3, mean ± SD, n=3; for AR-luc Efficacy / AR-luc Primary Assay Efficacy: relative to maximal efficacy of R1881; for EC50: read-out: AR-luc EC50
AR [1] = settings: AR reference compounds; ref Kleinstreuer 2016; cited from earlier work
[2] = biological target: T1, rat AR ligand-binding domain (LBD) fused to the DNA-binding domain of GAL4 (Rattus norvegicus, UniProt P15207); experiment: qHTS AR β-lactamase; type: cell-based; settings: for AR-bla Primary Assay EC50: Inactive = efficacy below 30% of R1881's activity
T1 sequence (P15207 651-882 limits assumed): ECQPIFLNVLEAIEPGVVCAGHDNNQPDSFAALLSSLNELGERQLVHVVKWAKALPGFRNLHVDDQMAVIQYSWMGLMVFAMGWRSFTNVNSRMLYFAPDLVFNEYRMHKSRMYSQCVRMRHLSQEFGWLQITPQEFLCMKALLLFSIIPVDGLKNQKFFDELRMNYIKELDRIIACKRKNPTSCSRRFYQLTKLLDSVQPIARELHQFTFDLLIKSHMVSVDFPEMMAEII

AR-LBD = biological target: T2, AR-LBD (Rattus norvegicus, UniProt P15207); experiment: Fluorescence polarization AR competition binding assay
T2 sequence (P15207 651-882 limits assumed): T1 sequence (P15207 651-882 limits assumed)

estrogen receptor = estrogen receptor (Homo sapiens, UniProt P03372); experiment: Analogous estrogen receptor screens; type: cell-based; settings: data not shown
rabbit = rabbit development study; ref Morinaga et al. 1996b; cited from earlier work
AR [3] = settings: ref Tamaya et al. 1986; cited from earlier work

Sequence of AR (full receptor) (P10275 whole entry): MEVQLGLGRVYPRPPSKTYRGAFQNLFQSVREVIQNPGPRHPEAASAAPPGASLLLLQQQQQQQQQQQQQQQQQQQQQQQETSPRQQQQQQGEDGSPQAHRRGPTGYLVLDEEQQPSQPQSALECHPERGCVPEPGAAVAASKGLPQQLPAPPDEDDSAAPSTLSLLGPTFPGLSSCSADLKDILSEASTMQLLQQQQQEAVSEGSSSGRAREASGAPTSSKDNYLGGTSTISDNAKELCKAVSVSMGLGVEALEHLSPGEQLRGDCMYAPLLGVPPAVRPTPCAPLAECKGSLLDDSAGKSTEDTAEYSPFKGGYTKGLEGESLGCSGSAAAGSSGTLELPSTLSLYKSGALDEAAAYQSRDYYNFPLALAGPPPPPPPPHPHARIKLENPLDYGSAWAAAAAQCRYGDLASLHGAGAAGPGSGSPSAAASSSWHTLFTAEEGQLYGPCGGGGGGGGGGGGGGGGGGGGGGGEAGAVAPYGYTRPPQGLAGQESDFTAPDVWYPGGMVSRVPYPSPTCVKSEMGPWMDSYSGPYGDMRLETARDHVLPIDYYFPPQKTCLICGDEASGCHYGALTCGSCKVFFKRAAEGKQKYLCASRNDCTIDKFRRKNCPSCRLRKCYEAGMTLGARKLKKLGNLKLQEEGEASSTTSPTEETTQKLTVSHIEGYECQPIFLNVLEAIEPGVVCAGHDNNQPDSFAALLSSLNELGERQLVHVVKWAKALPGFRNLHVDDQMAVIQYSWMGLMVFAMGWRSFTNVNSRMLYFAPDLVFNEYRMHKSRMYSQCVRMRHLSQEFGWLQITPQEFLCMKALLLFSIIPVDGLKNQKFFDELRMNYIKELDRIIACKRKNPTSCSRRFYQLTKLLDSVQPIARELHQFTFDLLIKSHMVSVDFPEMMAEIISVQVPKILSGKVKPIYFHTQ
Sequence of estrogen receptor (P03372 whole entry): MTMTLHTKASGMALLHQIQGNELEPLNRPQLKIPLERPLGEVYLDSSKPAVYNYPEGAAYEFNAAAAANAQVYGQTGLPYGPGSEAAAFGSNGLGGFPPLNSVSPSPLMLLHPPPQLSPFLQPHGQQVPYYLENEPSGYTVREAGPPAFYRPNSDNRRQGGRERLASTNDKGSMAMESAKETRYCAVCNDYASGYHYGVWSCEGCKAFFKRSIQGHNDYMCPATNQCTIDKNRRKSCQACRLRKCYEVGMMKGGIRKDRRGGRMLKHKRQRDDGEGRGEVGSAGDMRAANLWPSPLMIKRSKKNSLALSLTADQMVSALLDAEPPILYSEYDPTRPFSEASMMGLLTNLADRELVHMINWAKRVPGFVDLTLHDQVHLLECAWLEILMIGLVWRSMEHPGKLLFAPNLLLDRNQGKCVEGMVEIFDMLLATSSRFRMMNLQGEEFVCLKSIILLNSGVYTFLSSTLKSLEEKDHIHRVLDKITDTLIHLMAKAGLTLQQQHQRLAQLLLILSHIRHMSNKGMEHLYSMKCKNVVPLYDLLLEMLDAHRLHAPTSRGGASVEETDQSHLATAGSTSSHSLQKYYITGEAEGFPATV

COC(=O)Nc1nc2ccccc2[nH]1 [Carbendazim]
AR-luc Primary Assay EC50 (AR (full receptor)): Inactive^b | Known AR Activity (AR [1]): Inactive | AR-bla Primary Assay EC50 ([2]; primary qHTS): Inactive^b

C=C1C[C@H]2[C@@H]3C=C(C)C4=CC(=O)CC[C@]4(C)[C@H]3CC[C@]2(C)[C@@]1(OC(C)=O)C(C)=O [Melengestrol acetate]
AR-luc Efficacy (AR (full receptor)): 288.12 ± 44.83% | EC50 (AR (full receptor)): 0.017 ± 0.012 µM | IC50 (AR-LBD): 1.17 ± 0.2 µM | FP Binding Efficacy (AR-LBD; mean ± SD, n=3, printed as negative values): −124.24 ± 3.58%

C[C@]12CC[C@H]3[C@@H](CCC4=CC(=O)CC[C@@]43C)[C@@H]1CC[C@@H]2O [Testosterone]
Known AR Activity (AR [1]): Agonist

C[C@]12CCC(=O)C=C1CC[C@@H]1[C@@H]2CC[C@]2(C)C(=O)CC[C@@H]12 [4-Androstenedione]
Known AR Activity (AR [1]): Agonist

Cc1oc(=O)oc1CN1CCN(c2cc3c(cc2F)c(=O)c(C(=O)O)c2n3C(C)S2)CC1 (stereo not shown) [Prulifloxacin]
activity in estrogen receptor screens (estrogen receptor): active | NOAEL for pregnancy (rabbit): 30 mg/kg | general toxicity NOAEL (rabbit): 10 mg/kg

CCCN(CCOc1c(Cl)cc(Cl)cc1Cl)C(=O)n1ccnc1 [Prochloraz]
Known AR Activity (AR [1]): Inactive

CC(C)NC(=O)N1CC(=O)N(c2cc(Cl)cc(Cl)c2)C1=O [Iprodione]
Known AR Activity (AR [1]): Inactive

C#C[C@]1(OC(C)=O)CC[C@H]2[C@@H]3CCC4=CC(=O)CC[C@@H]4[C@H]3CC[C@@]21C [Norethindrone acetate]
Known AR Activity (AR [1]): Agonist

C[C@]1(O)CC[C@H]2[C@@H]3CCC4=CC(=O)CCC4=C3C=C[C@@]21C [Methyltrienolone (R1881), Methyltrienolone]
Known AR Activity (AR [1]): Agonist | AR-bla Primary Assay Efficacy [2]: 0.00131 [131] %

CC1(C)[C@@H](O[C@H]2O[C@H](C(=O)O)[C@@H](O)[C@H](O)[C@H]2O[C@@H]2O[C@H](C(=O)O)[C@@H](O)[C@H](O)[C@H]2O)CC[C@]2(C)[C@H]3C(=O)C=C4[C@@H]5C[C@@](C)(C(=O)O)CC[C@]5(C)CC[C@@]4(C)[C@]3(C)CC[C@@H]12 [Glycyrrhizin]
binding to AR, previously identified (AR [3]): weak binder of AR

Clc1ccc(C(c2ccc(Cl)cc2)C(Cl)(Cl)Cl)cc1 [p,p’-DDT]
Known AR Activity (AR [1]): Inactive

C[C@]12CCC(=O)C[C@@H]1CC[C@@H]1[C@@H]2CC[C@]2(C)[C@@H](O)CC[C@@H]12 [5α-Dihydrotestosterone]
Known AR Activity (AR [1]): Agonist

OC(c1ccc(Cl)cc1)(c1cncnc1)c1ccccc1Cl (stereo not shown) [Fenarimol]
Known AR Activity (AR [1]): Inactive

CC/C(=C(\c1ccccc1)c1ccc(OCCN(C)C)cc1)c1ccccc1 [Tamoxifen]
Known AR Activity (AR [1]): Inactive

C[C@]12CC[C@H]3C(=CCc4cc(O)ccc43)[C@@H]1CCC2=O [Equilin]
AR-luc Efficacy (AR (full receptor)): 89.27 ± 18.86% | EC50 (AR (full receptor)): 6.31 ± 2.03 µM | FP Binding Efficacy (AR-LBD): −89.77 ± 13.22% | IC50 (AR-LBD): 21 ± 3.41 µM | EC50 [2]: 19.5 µM | AR-bla Efficacy ([2]; Table 3, mean ± SD, n=3, relative to maximal efficacy of R1881): 31.53 ± 3.88%

CC(C)C(=O)Nc1ccc([N+](=O)[O-])c(C(F)(F)F)c1 [Flutamide]
Known AR Activity (AR [1]): Inactive

C#C[C@]1(O)CC[C@H]2[C@@H]3CCC4=C(CCC(=O)C4)[C@H]3CC[C@@]21C [Norethynodrel]
Known AR Activity (AR [1]): Agonist

Oc1ccc(/C=C/c2cc(O)cc(O)c2)cc1 [Resveratrol]
AR-luc Primary Assay EC50 (AR (full receptor)): Inactive^b | Known AR Activity (AR [1]): Inactive | AR-bla Primary Assay EC50 ([2]; primary qHTS): Inactive^b

CCNc1nc(Cl)nc(NC(C)C)n1 [Atrazine]
Known AR Activity (AR [1]): Inactive

C[C@]12CC[C@H]3[C@@H](CCC4=CC(=O)CC[C@@H]43)[C@@H]1CC[C@@H]2O [Nandrolone]
Known AR Activity (AR [1]): Agonist

C[C@]1(O)CC[C@H]2[C@@H]3CCC4=CC(=O)CC[C@]4(C)[C@@]3(F)[C@@H](O)C[C@@]21C [Fluoxymestrone]
Known AR Activity (AR [1]): Agonist

CC(=O)O[C@]1(C(C)=O)CC[C@H]2[C@@H]3C=C(Cl)C4=CC(=O)[C@@H]5C[C@@H]5[C@]4(C)[C@H]3CC[C@@]21C [Cyproterone acetate]
Known AR Activity (AR [1]): Weak Agonist

CC1(C)NC(=O)N(c2ccc([N+](=O)[O-])c(C(F)(F)F)c2)C1=O [Nilutamide]
Known AR Activity (AR [1]): Inactive

CC(=O)O[C@]1(C(C)=O)CC[C@H]2[C@@H]3C[C@H](C)C4=CC(=O)CC[C@]4(C)[C@H]3CC[C@@]21C [Medroxyprogesterone acetate]
Known AR Activity (AR [1]): Agonist

CN1C(=O)CN=C(c2ccccc2)c2cc([N+](=O)[O-])ccc21 [Nimetazepam, nimetazepam]
AR-luc Primary Assay Efficacy (AR (full receptor)): 470%

C#C[C@]1(O)CC[C@H]2[C@@H]3CCC4=CC(=O)CC[C@@H]4[C@H]3CC[C@@]21CC [Levonorgestrel]
Known AR Activity (AR [1]): Agonist

C[C@]12C=CC3=C4CCC(=O)C=C4CCC3C1CC[C@@H]2O (stereo partly shown) [Trenbolone]
AR-luc Primary Assay Efficacy (AR (full receptor)): 122% | Known AR Activity (AR [1]): Agonist | AR-bla Primary Assay Efficacy ([2]; primary qHTS, relative to maximal efficacy of R1881): 105%

C#C[C@]1(O)CC[C@H]2[C@@H]3CCC4=CC(=O)CC[C@@H]4[C@H]3CC[C@@]21C [Norethindrone]
Known AR Activity (AR [1]): Agonist

CC1(C)[C@H](C(=O)O[C@H](C#N)c2cccc(Oc3ccccc3)c2)[C@@H]1C=C(Br)Br [Deltamethrin]
AR-luc Primary Assay EC50 (AR (full receptor)): Inactive^b | Known AR Activity (AR [1]): Inactive | AR-bla Primary Assay EC50 ([2]; primary qHTS): Inactive^b

C[C@]12CCC(=O)C=C1CC[C@@H]1[C@@H]2CC[C@@]2(C)[C@H]1CC[C@]2(C)O [Methyltestosterone]
Known AR Activity (AR [1]): Agonist
